Measured values: patent publication US10961238B2, “Modulators of hedgehog (Hh) signaling pathway” (E-THERAPEUTICS PLC, priority 2016, dated 2021)

Tested on: C3H10T1/2 cells
Assay: C3H assay: differentiation of C3H10T1/2 cells by mSHH, measurement of alkaline phosphatase
Format: cell-based, mouse
Settings: Mus musculus, C3H 10T1/2; C3H10T1/2 cells stimulated with mSHH for 72 hours; alkaline phosphatase activity; read-out: IC50 Ranges

Row | Structure (SMILES) | IC50 [nM]
1 | Cc1nn(C)c(C)c1CNC(=O)N1CC(S(=O)(=O)N2CCC(c3c[nH]c4ncccc34)CC2)C1 [Compound 95, 3-[4-(1H-pyrrolo[2,3-b]pyridin-3-yl)piperidin-1-yl]sulfonyl-N-[(1,3,5-trimethylpyrazol-4-yl)methyl]azetidine-1-carboxamide] | 100 to 1000
2 | O=C(Nc1cccnc1)N1CC(S(=O)(=O)N2CCC(c3c[nH]c4ncccc34)CC2)C1 [Compound 96, N-pyridin-3-yl-3-[4-(1H-pyrrolo[2,3-b]pyridin-3-yl)piperidin-1-yl]sulfonylaze-tidine-1-carboxamide] | 10 to 100
3 | CC(C)NC(=O)N1CC(S(=O)(=O)N2CCC(c3c[nH]c4ncccc34)CC2)C1 [Compound 98, N-propan-2-yl-3-[4-(1H-pyrrolo[2,3-b]pyridin-3-yl)piperidin-1-yl]sulfonylaze-tidine-1-carboxamide] | 100 to 1000
4 | O=C(NCc1ccco1)N1CC(S(=O)(=O)N2CCC(c3c[nH]c4ncccc34)CC2)C1 [Compound 99, N-(furan-2-ylmethyl)-3-[4-(1H-pyrrolo[2,3-b]pyridin-3-yl)piperidin-1-yl]sulfonylaze-tidine-1-carboxamide] | 100 to 1000
5 | CC(C)(C)OC(=O)N1CC(S(=O)(=O)N2CCC(c3cnc4ccccn34)CC2)C1 [Compound 100, tert-butyl 3-(4-imidazo[1,2-a]pyridin-3-ylpiperidin-1-yl)sulfonylaze-tidine-1-carboxylate] | 100 to 1000
6 | CC(C)(C)OC(=O)N1CC(S(=O)(=O)N2CCC(c3cnc4n3CCCC4)CC2)C1 [Compound 101, tert-butyl 3-[4-(5,6,7,8-tetrahydroimidazo [1,2-a]pyridin-3-yl)piperidin-1-yl]sulfonylaze-tidine-1-carboxylate] | 1000 to 10000
7 | Cn1cncc1C1CCN(S(=O)(=O)C2CN(C(=O)OC(C)(C)C)C2)CC1 [Compound 102, tert-butyl 3-[4-(3-methylimidazol-4-yl)piperidin-1-yl]sulfonylaze-tidine-1-carboxylate] | 1000 to 10000
8 | CCOC(=O)N1CCC(S(=O)(=O)N2CCC(c3ccncc3)CC2)CC1 [Compound 103, ethyl 4-(4-pyridin-4-ylpiperidin-1-yl)sulfonylpiper-idine-1-carboxylate] | 1000 to 10000
9 | O=C(NC1CCC1)N1CCC(S(=O)(=O)N2CCC(c3ccncc3)CC2)CC1 [Compound 104, N-cyclobutyl-4-(4-pyridin-4-ylpiperidin-1-yl)sulfonylpiper-idine-1-carboxamide] | 1000 to 10000
10 | CC(C)OC(=O)N1CCC(S(=O)(=O)N2CCC(c3ccncc3)CC2)CC1 [Compound 105, propan-2-yl 4-(4-pyridin-4-ylpiperidin-1-yl)sulfonylpiper-idine-1-carboxylate] | 1000 to 10000
11 | COC(=O)N1CCC(S(=O)(=O)N2CCC(c3ccncc3)CC2)CC1 [Compound 106, methyl 4-(4-pyridin-4-ylpiperidin-1-yl)sulfonylpiper-idine-1-carboxylate] | 1000 to 10000
12 | CC(C)(C)NC(=O)N1CC(S(=O)(=O)N2CCC(c3c[nH]c4ncccc34)CC2)C1 [Compound 108, N-tert-butyl-3-[4-(1H-pyrrolo[2,3-b]pyridin-3-yl)piperidin-1-yl]sulfonylaze-tidine-1-carboxamide] | 10 to 100
13 | CC(C)(C)OC(=O)N1CC(S(=O)(=O)N2CCC(c3c[nH]c4ncccc34)CC2)C1 [Compound 110, tert-butyl 3-[4-(1H-pyrrolo[2,3-b]pyridin-3-yl)piperidin-1-yl]sulfonylaze-tidine-1-carboxylate] | 10 to 100
14 | CC(C)(C)NC(=O)N1CCC(S(=O)(=O)N2CCC(c3ccncc3)CC2)CC1 [Compound 111, N-tert-butyl-4-(4-pyridin-4-ylpiperidin-1-yl)sulfonylpiper-idine-1-carboxamide] | 100 to 1000
15 | O=S(=O)(C1CCN(c2ccccc2)CC1)N1CCC(c2ccncc2)CC1 [Compound 113, 4-[1-[(1-Phenyl-4-piperidyl)sulfonyl]-4-piperidyl]pyridine] | 1000 to 10000
16 | O=C(Oc1ccccc1)N1CCC(S(=O)(=O)N2CCC(c3ccncc3)CC2)CC1 [Compound 114, phenyl 4-(4-pyridin-4-ylpiperidin-1-yl)sulfonylpiper-idine-1-carboxylate] | 1000 to 10000
17 | CC(C)(C)OC(=O)N1CCC(S(=O)(=O)N2CCC(c3c[nH]c4ncc(C(F)(F)F)cc34)CC2)CC1 [Compound 116] | 100 to 1000
18 | Cn1cc(-c2cnc3[nH]cc(C4CCN(S(=O)(=O)C5CCN(C(=O)OC(C)(C)C)CC5)CC4)c3c2)cn1 [Compound 117, tert-butyl 4-[4-[5-(1-methylpyrazol-4-yl)-1H-pyrrolo [2,3-b]pyridin-3-yl]piperidin-1-yl]sulfonylpiper-idine-1-carboxylate] | 1000 to 10000
19 | O=S(=O)(C1CN(c2ccccn2)C1)N1CCC(c2c[nH]c3ncccc23)CC1 [Compound 118, 3-[1-[1-(2-Pyridyl)azetidin-3-yl]sulfonyl-4-piperidyl]-1H-pyrrolo[2,3-b]pyridine] | 10 to 100
20 | CC(C)N(C)C(=O)N1CC(S(=O)(=O)N2CCC(c3c[nH]c4ncccc34)CC2)C1 [Compound 119, N-methyl-N-propan-2-yl-3-[4-(1H-pyrrolo [2,3-b]pyridin-3-yl)piperidin-1-yl]sulfonylaze-tidine-1-carboxamide] | 10 to 100
21 | CC(C)(C)OC(=O)N1CC(S(=O)(=O)N2CCC(c3c[nH]c4ncc(C(F)(F)F)cc34)CC2)C1 [Compound 121, tert-butyl 3-[4-[5-(trifluoromethyl)-1H-pyrrolo[2,3-b]pyridin-3-yl]piperidin-1-yl]sulfonylaze-tidine-1-carboxylate] | 1000 to 10000
22 | COc1cnc2[nH]cc(C3CCN(S(=O)(=O)C4CN(C(=O)OC(C)(C)C)C4)CC3)c2c1 [Compound 123, tert-butyl 3-[4-(5-methoxy-1H-pyrrolo[2,3-b]pyridin-3-yl)piperidin-1-yl]sulfonylaze-tidine-1-carboxylate] | 100 to 1000

Next, values leading:

Row | IC50 [nM] | Structure (SMILES)
23 | 10 to 100 | CC(C)(C)OC(=O)N1CC(S(=O)(=O)N2CCC(c3c[nH]c4ccccc34)CC2)C1 [Compound 125, tert-butyl 3-[4-(1H-indol-3-yl)piperidin-1-yl]sulfonylaze-tidine-1-carboxylate]
24 | 100 to 1000 | COC(=O)N1CC(S(=O)(=O)N2CCC(c3coc4cccnc34)CC2)C1 [Compound 126, methyl 3-(4-furo [3,2-b]pyridin-3-ylpiperidin-1-yl)sulfonylaze-tidine-1-carboxylate]
25 | 100 to 1000 | CC(C)(C)OC(=O)N1CC(S(=O)(=O)N2CCC(C3COc4cccnc43)CC2)C1 (stereo not shown) [Compound 127, tert-butyl 3-[4-(2,3-dihydrofuro[3,2-b]pyridin-3-yl)piperidin-1-yl]sulfonylaze-tidine-1-carboxylate]
26 | 10 to 100 | CC(C)(C)OC(=O)N1CC(S(=O)(=O)N2CCC(c3c[nH]c4nccnc34)CC2)C1 [Compound 128, tert-Butyl 3-[[4-(5H-pyrrolo[2,3-b]pyrazin-7-yl)-1-piperidyl]sulfonyl] azetidine-1-carboxylate]
27 | 1000 to 10000 | Cc1ccc(S(=O)(=O)n2cc(C3CCN(S(=O)(=O)C4CN(C(=O)OC(C)(C)C)C4)CC3)c3nccnc32)cc1 [Compound 129, tert-butyl 3-[4-[5-(4-methylphenyl)-sulfonylpyrrolo[2,3-b]pyrazin-7-yl]piperidin-1-yl]sulfonylaze-tidine-1-carboxylate]
28 | 1000 to 10000 | CC(C)(C)OC(=O)N1CC(S(=O)(=O)N2CCC(c3cnn4ccncc34)CC2)C1 [Compound 130, tert-butyl 3-(4-pyrazolo[1,5-a]pyrazin-3-ylpiperidin-1-yl)sulfonylaze-tidine-1-carboxylate]
29 | 100 to 1000 | CC(C)(C)OC(=O)N1CCC(S(=O)(=O)N2CCC(c3coc4cccnc34)CC2)CC1 [Compound 132, tert-butyl 4-(4-furo[3,2-b]pyridin-3-ylpiperidin-1-yl)sulfonylpiper-idine-1-carboxylate]
30 | 100 to 1000 | CC(C)(C)OC(=O)N1CCC(S(=O)(=O)N2CCC(c3c[nH]c4ccccc34)CC2)CC1 [Compound 133, tert-butyl 4-[4-(1H-indol-3-yl)piperidin-1-yl]sulfonylpiper-idine-1-carboxylate]
31 | 100 to 1000 | Cc1noc(C)c1CCN1CC(S(=O)(=O)N2CCC(c3coc4cccnc34)CC2)C1 [Compound 134, 3-[1-[1-[2-(3,5-dimethyl-1,2-oxazol-4-yl)ethyl]azetidin-3-yl]sulfonylpiper-idin-4-yl]furo [3,2-b]pyridine]
32 | < 10 | Cc1noc(C)c1NC(=O)N1CC(S(=O)(=O)N2CCC(c3coc4cccnc34)CC2)C1 [Compound 135, N-(3,5-dimethyl-1,2-oxazol-4-yl)-3-(4-furo[3,2-b]pyridin-3-ylpiperidin-1-yl)sulfonylaze-tidine-carboxamide]
33 | 10 to 100 | O=C(OC1CCOCC1)N1CC(S(=O)(=O)N2CCC(c3coc4cccnc34)CC2)C1 [Compound 136, oxan-4-yl 3-(4-furo[3,2-b]pyridin-3-ylpiperidin-1-yl)sulfonylaze-tidine-1-carboxylate]
34 | 100 to 1000 | O=C(N1CCOCC1)N1CC(S(=O)(=O)N2CCC(c3coc4cccnc34)CC2)C1 [Compound 137, [3-(4-furo [3,2-b]pyridin-3-ylpiperidin-1-yl)sulfonylaze-tidin-1-yl]-morpholin-4-ylmethanone]
35 | < 10 | Cc1noc(C)c1CC(=O)N1CC(S(=O)(=O)N2CCC(c3coc4cccnc34)CC2)C1 [Compound 138, N-2-(3,5-Dimethylisoxazol-4-yl)-acetyl 3-[(4-furo[3,2-b]pyridin-3-yl-1-piperidyl)sulfonyl]azetidine]
36 | 10 to 100 | O=C(NC1(C(F)(F)F)CC1)N1CC(S(=O)(=O)N2CCC(c3coc4cccnc34)CC2)C1 [Compound 139, 3-(4-furo[3,2-b]pyridin-3-ylpiperidin-1-yl)sulfonyl-N-[1-(trifluoromethyl)cyclopropyl] azetidine-1-carboxamide]
37 | 10 to 100 | CC(C)(C)COC(=O)N1CC(S(=O)(=O)N2CCC(c3coc4cccnc34)CC2)C1 [Compound 140, 2,2-dimethylpropyl 3-(4-furo[3,2-b]pyridin-3-ylpiperidin-1-yl)sulfonylaze-tidine-1-carboxylate]
